Here are results for 24 compounds from PMC8533333, “Melatonin Analogues Potently Inhibit MAO-B and Protect PC12 Cells against Oxidative Stress” (Antioxidants, 2021).

The structures appear in SMILES notation.

A word on the inhibition: it is the drop in the measured response relative to a control, in per cent. The term melting point denotes the temperature, or range, at which the solid turns liquid. The term IC50 denotes the concentration that gives 50% inhibition. One may read the Ki as the dissociation constant of the complex between target and ligand, obtained from inhibition or displacement.

Data set [1] deals with T1, Human recombinant MAO-B (hMAO-B) (Homo sapiens, UniProt P27338).
T1 construct: purchased Sigma Aldrich; host or cells: insect cells
T1 sequence (P27338 1-520): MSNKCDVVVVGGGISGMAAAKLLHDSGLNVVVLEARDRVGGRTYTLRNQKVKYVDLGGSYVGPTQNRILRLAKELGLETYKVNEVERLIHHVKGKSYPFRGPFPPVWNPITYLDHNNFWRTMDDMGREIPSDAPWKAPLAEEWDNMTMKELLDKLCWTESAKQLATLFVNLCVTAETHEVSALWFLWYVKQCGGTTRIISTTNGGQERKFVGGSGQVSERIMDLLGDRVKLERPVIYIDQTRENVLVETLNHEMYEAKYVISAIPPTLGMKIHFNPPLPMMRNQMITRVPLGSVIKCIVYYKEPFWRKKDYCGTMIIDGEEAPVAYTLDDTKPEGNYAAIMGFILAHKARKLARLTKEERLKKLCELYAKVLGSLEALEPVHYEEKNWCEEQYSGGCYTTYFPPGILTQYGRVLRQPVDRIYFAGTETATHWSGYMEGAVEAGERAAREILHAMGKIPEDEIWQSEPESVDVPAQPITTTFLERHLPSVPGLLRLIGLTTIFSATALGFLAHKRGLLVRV
The experiment in a line: MAO-B enzyme assay (Amplex Red, resorufin fluorescence). It is filed as biochemical. Particulars: for inhibition at 10 µM: single dose 10 µM; for Selectivity Index (SI): IC50 (MAO-A)/IC50 (MAO-B); for IC50: five doses 10-0.001 µM, triplicate. On the procedure:
(§1) Biological evaluation of the synthesized melatonin derivatives over both MAO-A and MAO-B was performed as reported previously. A detailed description of the protocol is in the Supplementary Materials.
First, the synthesized melatonin analogues (3a–x) were biologically evaluated over an MAO-B recombinant enzyme. The experiment was performed using Amplex® Red reagent technology. This technology offers quantitative enzyme activity sensitive detection, a wider dynamic range, and fluorescence emission outside the range of compound autofluorescence (if any). The Amplex® Red reagent is a colorless substrate that reacts with H2O2 in a 1:1 stoichiometry to produce a highly fluorescent resorufin; therefore, the induced inhibitory effects of the melatonin analogues over MAO-B were examined via spectrophotometry where the fluorescence rate of resorufin dye formation was measured.
Accordingly, compounds 3n, 3r, and 3u–w were further tested to determine their IC50 values over MAO-B in triplicate from the dose–response inhibition curves using Sigma-Plot software 13.0.
(§2) 6. Materials and methods of monoamine oxidase (MAO) enzyme assay
The inhibitory activity of MAO-A, B enzyme of the compounds was evaluated based on previously described method. The MAO activity was measured in relative fluorescence units (RFU) evoked by peroxidase-catalyzed oxidation of Amplex Red® to resorufin, in which H2O2 generated by MAO reaction was used as the […]. Human recombinant MAO-A (hMAO-A) and MAO-B (hMAO-B) enzyme expressed in insect cells were obtained from Sigma Aldrich. The 2 μL of test compound in DMSO (final concentration: 1 nM – 10 μM) was treated with 98 μL of hMAO enzyme solution in 50 mM sodium phosphate buffer (pH 7.4, final protein amounts: ~1.25 μg protein/well for MAO-A and ~2.5 μg protein/well for MAO -B) on 96-well black plate and incubated for 15 min at 37 °C. Then 100 μL of reaction working solution which is mixed solution of 400 μM Amplex Red® (Cayman, final concentration: 200 μM), 2 U/mL horseradish peroxidase ( Sigma-Aldrich, final concentration: 1 U/mL) and 2 mM substrate ( p-tyramine for MAO -A, benzylamine for MAO -B, Sigma-Aldrich, final concentration: 1 mM) in 50 mM sodium phosphate buffer (pH 7.4) were added and incubated for 20 min at 37 °C in the dark. The fluorescent intensity was quantified using a microplate reader (SpectraMax®i3, Molecular Device) with an excitation at 545 nm and an emission at 590 nm. The 50% inhibitory concentrations (IC50) of compounds were determined as the mean ± S.E.M. in triplicate from the dose-response inhibition curves using SigmaPlot® 13.0. […]

Data set [2] concerns the target T2, Human recombinant MAO-A (hMAO-A) (Homo sapiens, UniProt P21397).
T2 construct: purchased Sigma Aldrich; host or cells: insect cells
T2 sequence (P21397 1-527): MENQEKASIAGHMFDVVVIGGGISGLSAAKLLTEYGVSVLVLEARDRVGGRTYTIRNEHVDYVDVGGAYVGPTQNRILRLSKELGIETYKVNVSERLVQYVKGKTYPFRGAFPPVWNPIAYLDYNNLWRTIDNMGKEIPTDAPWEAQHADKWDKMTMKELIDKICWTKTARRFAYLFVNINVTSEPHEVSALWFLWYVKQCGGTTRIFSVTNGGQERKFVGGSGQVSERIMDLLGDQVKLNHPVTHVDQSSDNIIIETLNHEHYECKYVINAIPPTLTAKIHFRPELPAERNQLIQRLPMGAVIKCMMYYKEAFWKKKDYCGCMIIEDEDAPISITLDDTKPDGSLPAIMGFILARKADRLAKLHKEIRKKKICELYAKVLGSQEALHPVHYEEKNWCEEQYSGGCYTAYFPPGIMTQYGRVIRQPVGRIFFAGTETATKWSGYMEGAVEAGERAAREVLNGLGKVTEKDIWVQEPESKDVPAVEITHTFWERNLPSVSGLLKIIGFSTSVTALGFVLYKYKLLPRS
In words: MAO-A enzyme assay (Amplex Red), selectivity. It is filed as biochemical. Here is the method: as §1, §2
The inhibitory activity of MAO-A, B enzyme of the compounds was evaluated based on previously described method. The MAO activity was measured in relative fluorescence units (RFU) evoked by peroxidase-catalyzed oxidation of Amplex Red® to resorufin, in which H2O2 generated by MAO reaction was used as the […]. Human recombinant MAO-A (hMAO-A) and MAO-B (hMAO-B) enzyme expressed in insect cells were obtained from Sigma Aldrich. The 2 μL of test compound in DMSO (final concentration: 1 nM – 10 μM) was treated with 98 μL of hMAO enzyme solution in 50 mM sodium phosphate buffer (pH 7.4, final protein amounts: ~1.25 μg protein/well for MAO-A and ~2.5 μg protein/well for MAO -B) on 96-well black plate and incubated for 15 min at 37 °C. Then 100 μL of reaction working solution which is mixed solution of 400 μM Amplex Red® (Cayman, final concentration: 200 μM), 2 U/mL horseradish peroxidase ( Sigma-Aldrich, final concentration: 1 U/mL) and 2 mM substrate ( p-tyramine for MAO -A, benzylamine for MAO -B, Sigma-Aldrich, final concentration: 1 mM) in 50 mM sodium phosphate buffer (pH 7.4) were added and incubated for 20 min at 37 °C in the dark. The fluorescent intensity was quantified using a microplate reader (SpectraMax®i3, Molecular Device) with an excitation at 545 nm and an emission at 590 nm. The 50% inhibitory concentrations (IC50) of compounds were determined as the mean ± S.E.M. in triplicate from the dose-response inhibition curves using SigmaPlot® 13.0.
monoamine oxidase inhibitors. Bioorganic & medicinal chemistry 2015, 23, 6486-6496,

The subject of a further data set is MAO-B. Set-up: method as in PMID 32752896. Particulars: cited from earlier work.

Consider `O=C(Nc1ccc2[nH]ccc2c1)c1ccccc1` [3a, N-(1H-indol-5-yl)benzamide], for which, in data set [1], the inhibition at 10 µM came to 14.9 ± 0.8%.

`O=C(Nc1ccc2[nH]ccc2c1)c1ccccc1Br` [3b, 2-Bromo-N-(1H-indol-5-yl)benzamide] had a melting point of 231 to 233 °C. Besides, the inhibition at 10 µM in data set [1] amounted to 0.27 ± 0.81%.

`O=C(Nc1ccc2[nH]ccc2c1)c1ccc(Br)cc1` [3c, 4-Bromo-N-(1H-indol-5-yl)benzamide] had a melting point of 209 to 210 °C. In addition, in data set [1], the inhibition at 10 µM was 37.1 ± 0.7%.

`O=C(Nc1ccc2[nH]ccc2c1)c1ccc(Cl)cc1Cl` [3d, 2,4-Dichloro-N-(1H-indol-5-yl)benzamide] showed a melting point of 161 to 162 °C. Moreover, the inhibition at 10 µM in data set [1] worked out at 22.9 ± 0.7%.

Turning to `O=C(Nc1ccc2[nH]ccc2c1)c1cc([N+](=O)[O-])cc([N+](=O)[O-])c1` [3e, N-(1H-indol-5-yl)-3,5-dinitrobenzamide], the inhibition at 10 µM in data set [1] was 2.75 ± 0.2%.

`O=C(Nc1ccc2[nH]ccc2c1)c1cccc([N+](=O)[O-])c1` [3f, N-(1H-indol-5-yl)-3-nitrobenzamide] yielded a melting point of 214 to 215 °C. The inhibition at 10 µM in data set [1] turned out to be 54.25 ± 0.37%.

`O=C(Nc1ccc2[nH]ccc2c1)c1ccc([N+](=O)[O-])cc1` [3g, N-(1H-indol-5-yl)-4-nitrobenzamide] gave a melting point of 262 to 264 °C. Further, the inhibition at 10 µM in data set [1] was determined as 61 ± 0.69%.

Consider `O=C(Nc1ccc2[nH]ccc2c1)c1c(F)cccc1F` [3h, 2,6-Difluoro-N-(1H-indol-5-yl)benzamide], for which the melting point lay in the range of 236 to 237 °C. Moreover, the inhibition at 10 µM in data set [1] was -0.02 ± 0.26%.

`O=C(Nc1ccc2[nH]ccc2c1)c1cccc(F)c1` [3i, 3-Fluoro-N-(1H-indol-5-yl)benzamide] gave a melting point of 166 to 168 °C. The inhibition at 10 µM in data set [1] came to 35.3 ± 0.76%.

Take `O=C(Nc1ccc2[nH]ccc2c1)c1ccc(F)cc1` [3j, 4-Fluoro-N-(1H-indol-5-yl)benzamide]: the inhibition at 10 µM in data set [1] turned out to be 58.3 ± 1.02%.

`O=C(Nc1ccc2[nH]ccc2c1)c1ccccc1F` [3k, 2-Fluoro-N-(1H-indol-5-yl)benzamide] yielded a melting point of 179 to 181 °C. Further, the inhibition at 10 µM in data set [1] worked out at 37.86 ± 0.33%.

Compound `O=C(Nc1ccc2[nH]ccc2c1)c1ccc(F)cc1C(F)(F)F` [3l, 4-Fluoro-N-(1H-indol-5-yl)-2-(trifluoromethyl)benzamide] yielded a melting point of 153 to 154 °C. In addition, the inhibition at 10 µM in data set [1] is 1.49 ± 0.26%.

Consider `N#Cc1cccc(C(=O)Nc2ccc3[nH]ccc3c2)c1` [3m, 3-Cyano-N-(1H-indol-5-yl)benzamide], for which the melting point was 188 to 189 °C. For the same compound, the inhibition at 10 µM in data set [1] is 8.33 ± 0.59%.

In the case of `O=C(Nc1ccc2[nH]ccc2c1)c1ccccc1Cl` [3o, 2-Chloro-N-(1H-indol-5-yl)benzamide], the inhibition at 10 µM in data set [1] came out at 2.39 ± 0.31%.

Regarding `O=C(Nc1ccc2[nH]ccc2c1)c1ccc(Cl)cc1` [3p, 4-Chloro-N-(1H-indol-5-yl)benzamide], the inhibition at 10 µM in data set [1] was found to be 57.98 ± 0.07%.

Turning to `CC(C)(C)c1ccc(C(=O)Nc2ccc3[nH]ccc3c2)cc1` [3q, 4-(Tert-butyl)-N-(1H-indol-5-yl)benzamide], the melting point fell in the range of 189 to 190 °C. The inhibition at 10 µM in data set [1] came to 50.01 ± 0.04%.

The compound `O=C(Nc1ccc2[nH]ccc2c1)c1cccc(OC(F)(F)F)c1` [3s, N-(1H-indol-5-yl)-3-(trifluoromethoxy)benzamide] gave a melting point of 130 to 132 °C. For the same compound, in data set [1], the inhibition at 10 µM turned out to be 68.34 ± 0.25%.

For `O=C(Nc1ccc2[nH]ccc2c1)c1ccc(OC(F)(F)F)cc1` [3t, N-(1H-indol-5-yl)-4-(trifluoromethoxy)benzamide], the melting point was in the range of 195 to 196 °C. Further, in data set [1], the inhibition at 10 µM amounted to 63.23 ± 0.45%.

In turn, `O=C(Nc1ccc2[nH]ccc2c1)c1cccc(C(F)(F)F)c1` [3u, N-(1H-indol-5-yl)-3-(trifluoromethyl)benzamide] yielded a melting point of 148 to 150 °C. In addition, in data set [1], the “Selectivity Index (SI)” value is reported as greater than 83, the IC50 amounted to 1.2 µM and the inhibition at 10 µM came out at 85.12 ± 0.22%. Also, in data set [2], the IC50 was greater than 100 µM.

`O=C(Nc1ccc2[nH]ccc2c1)c1ccc(C(F)(F)F)cc1` [3v, N-(1H-indol-5-yl)-4-(trifluoromethyl)benzamide]: the melting point fell in the range of 206 to 207 °C. In addition, in data set [1], the “Selectivity Index (SI)” value is on record as greater than 151, the IC50 amounted to 0.66 µM and the inhibition at 10 µM is 91.22 ± 0.11%. Also, the IC50 in data set [2] was greater than 100 µM.

In turn, `O=C(Nc1ccc2[nH]ccc2c1)c1cc(Cl)cc(Cl)c1` [3w, 3,5-Dichloro-N-(1H-indol-5-yl)benzamide] had a melting point of 199 to 201 °C. In data set [1], the “Selectivity Index (SI)” value is given as greater than 41, the IC50 came to 2.41 µM and the inhibition at 10 µM was 72.63 ± 0.32%. For the same compound, the IC50 in data set [2] is greater than 100 µM.

In turn, `O=C(Nc1ccc2[nH]ccc2c1)c1c(Cl)cccc1Cl` [3x, 2,6-Dichloro-N-(1H-indol-5-yl)benzamide] showed a melting point of 221 to 223 °C. Moreover, the inhibition at 10 µM in data set [1] worked out at 0.89 ± 0.31%.

Take `O=C(Nc1ccc2c(ccn2C(=O)c2cccc(F)c2)c1)c1cnccn1` [N-(1-(3-fluorobenzoyl)-1H-indol-5-yl)pyrazine-2-carboxamide]: the IC50 in the data set on MAO-B was 0.78 µM. The Ki at MAO-B (competitive) is 0.0945 µM.

Turning to `C#CCN[C@@H]1CCc2ccccc21` [rasagiline, reference compound], in data set [1], the “Selectivity Index (SI)” value is greater than 50.
